According to patent US20210289787A1, “HERBICIDAL MIXTURES COMPRISING ISOXAFLUTOLE, TRIFLUDIMOXAZIN AND AN IMIDAZOLINONE HERBICIDE; AND THEIR USE IN SOYBEAN AND COTTON CULTURES” (BASF SE, priority 2018, published 2021):

System: SETVI (Setaria viridis, Green foxtail)
Test: post-emergence greenhouse experiment, herbicidal action (synergism by Colby)
Type: in vivo

**Q.** How did the “Herbicidal action against SETVI, Found” value (growth stage 13 (6 to 10 cm), scale 0 to 100, test period 20 days, isoxaflutole 25 g/ha alone) turn out when `CS(=O)(=O)c1cc(C(F)(F)F)ccc1C(=O)c1cnoc1C1CC1` [Isoxaflutole, isoxaflutole] was run?
**A.** The value was 20.

**Q.** What about the “Herbicidal action against SETVI, Found” value (growth stage 13, scale 0 to 100, 20 days, isoxaflutole 12.5 g/ha alone) of the same molecule?
**A.** The value was 20.
